HELM strings list units from the 5' end as sugar, base in round brackets, then linkage (d deoxyribose, r ribose, m 2'-O-methyl, p phosphodiester). Strings are as the collection lists them; they lack the last nucleoside at the 3' end of the tested compound. [moe] = 2'-O-(2-methoxyethyl) (MOE); [sp] = phosphorothioate linkage; [m5C] = 5-methylcytosine

For the data set, the target named is HTT. Briefly: mouse, dose not given. To be noted: ASO.
“RNA1{[moe]([m5C])[sp].[moe](A)p.[moe]([m5C])p.[moe](A)p.[moe](G)p.[moe]([m5C])p.d(T)[sp].d(T)[sp].d(T)[sp].d(T)[sp].d(A)[sp].d(T)[sp].d(T)[sp].d(T)[sp].d([m5C])[sp].d([m5C])[sp].[moe](A)p.[moe](T)[sp].[moe](A)}$$$$ (last 3' nucleoside missing)” yielded a 3 h FOB score of 0 score 0-7.

“RNA1{[moe]([m5C])[sp].[moe](A)p.[moe]([m5C])p.[moe](T)p.[moe]([m5C])[sp].d(A)[sp].d(T)[sp].d(T)[sp].d(T)[sp].d([m5C])[sp].d([m5C])[sp].d(A)[sp].d([m5C])[sp].d([m5C])[sp].d(T)[sp].[moe](T)p.[moe]([m5C])p.[moe](A)[sp].[moe](G)}$$$$ (last 3' nucleoside missing)” gave a 3 h FOB score of 0 score 0-7.

“RNA1{[moe]([m5C])[sp].[moe](T)p.[moe](A)p.[moe](G)p.[moe](A)[sp].d(G)[sp].d(G)[sp].d(T)[sp].d([m5C])[sp].d(A)[sp].d(T)[sp].d([m5C])[sp].d(T)[sp].d(T)[sp].d([m5C])[sp].[moe](G)p.[moe](G)p.[moe](T)[sp].[moe]([m5C])}$$$$ (last 3' nucleoside missing)” showed a 3 h FOB score of 2 score 0-7.

“RNA1{[moe]([m5C])[sp].[moe](T)p.[moe](T)p.[moe](G)p.[moe](G)p.[moe](T)p.d(T)[sp].d(A)[sp].d(G)[sp].d(T)[sp].d(T)[sp].d(T)[sp].d(T)[sp].d([m5C])[sp].d([m5C])[sp].d(T)[sp].[moe](T)p.[moe](T)[sp].[moe](T)}$$$$ (last 3' nucleoside missing)”: the 3 h FOB score turned out to be 4.25 score 0-7.
